Laboratory results: ChEMBL document CHEMBL1201862, “PubChem BioAssay data set” (2004)
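Briefly, cells in 96-well plates were exposed to five compound concentrations for 48 h, and endpoints were estimated by linear interpolation. Abbreviation: GI50, concentration required for 50% inhibition of growth.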 Calls of active or inactive are those of the source. Rule as the data show it: active = GI50 up to about 1.1 µM and inactive = higher.

Experiments:
Experiment in all cases: NCI tumour cell line growth inhibition, 48 h
[1] = test system: OVCAR-5
[2] = test system: SK-MEL-5
[3] = test system: Malme-3M
[4] = test system: UACC-62
[5] = test system: XF498
[6] = test system: SF-539
[7] = test system: LOX IMVI
[8] = test system: IGROV-1
[9] = test system: HT-29
[10] = test system: NCI-H226
[11] = test system: A498
[12] = test system: NCI-H23
[13] = test system: SN12C
[14] = test system: COLO 205
[15] = test system: NCI-H522
[16] = test system: HCC 2998
[17] = test system: U-251

## O=C(CC1(O)C(=O)Nc2ccccc21)c1ccccc1O (stereo unspecified)
[1]
  GI50: > 100 µM (inactive)
[2]
  GI50: > 100 µM (inactive)
[3]
  GI50: > 100 µM (inactive)
[4]
  GI50: > 100 µM (inactive)
[5]
  GI50: > 100 µM (inactive)
[6]
  GI50: > 100 µM (inactive)
[7]
  GI50: > 100 µM (inactive)
[8]
  GI50: > 100 µM (inactive)
[9]
  GI50: > 100 µM (inactive)
[10]
  GI50: > 100 µM (inactive)
[11]
  GI50: > 100 µM (inactive)
[12]
  GI50: > 100 µM (inactive)
[13]
  GI50: > 100 µM (inactive)
[14]
  GI50: > 100 µM (inactive)
[15]
  GI50: > 100 µM (inactive)

## O=C(c1cc(=O)c2ccc(O)cc2o1)c1ccc(Cl)cc1Cl
[1]
  GI50: > 74.8 µM (inactive)
[2]
  GI50: 20.4 µM (inactive)
[16]
  GI50: 9.75 µM (inactive)
[3]
  GI50: 34.4 µM (inactive)
[4]
  GI50: 5.93 µM (inactive)
[17]
  GI50: 20.6 µM (inactive)
[5]
  GI50: 26.8 µM (inactive)
[7]
  GI50: 3.15 µM (inactive)
[8]
  GI50: 17.7 µM (inactive)
[9]
  GI50: 36.2 µM (inactive)
[10]
  GI50: 26.7 µM (inactive)
[11]
  GI50: 57.3 µM (inactive)
[12]
  GI50: 24 µM (inactive)
[13]
  GI50: 17.2 µM (inactive)
[14]
  GI50: 3.27 µM (inactive)
[15]
  GI50: 9.89 µM (inactive)

## O=C(O)c1ccccc1C(=O)c1ccco1
[1]
  GI50: > 100 µM (inactive)
[2]
  GI50: > 100 µM (inactive)
[16]
  GI50: > 100 µM (inactive)
[3]
  GI50: > 100 µM (inactive)
[4]
  GI50: > 100 µM (inactive)
[17]
  GI50: > 100 µM (inactive)
[5]
  GI50: > 100 µM (inactive)
[6]
  GI50: > 100 µM (inactive)
[7]
  GI50: > 100 µM (inactive)
[8]
  GI50: > 100 µM (inactive)
[9]
  GI50: > 100 µM (inactive)
[10]
  GI50: > 100 µM (inactive)
[11]
  GI50: > 100 µM (inactive)
[12]
  GI50: > 100 µM (inactive)
[13]
  GI50: > 100 µM (inactive)
[14]
  GI50: > 100 µM (inactive)
[15]
  GI50: > 100 µM (inactive)

## CC1=CC(C)(c2c[nH]c3ccccc23)CC(C)(C)c2c1[nH]c1ccccc21 (stereo unspecified)
[1]
  GI50: 18 µM (inactive)
[16]
  GI50: 14.5 µM (inactive)
[3]
  GI50: 16.6 µM (inactive)
[4]
  GI50: 15.2 µM (inactive)
[17]
  GI50: 15.9 µM (inactive)
[5]
  GI50: 20.6 µM (inactive)
[6]
  GI50: 43.2 µM (inactive)
[7]
  GI50: 15.2 µM (inactive)
[8]
  GI50: 16.2 µM (inactive)
[9]
  GI50: 12.9 µM (inactive)
[10]
  GI50: 18.6 µM (inactive)
[11]
  GI50: 17.7 µM (inactive)
[12]
  GI50: 14.4 µM (inactive)
[13]
  GI50: 14.3 µM (inactive)

## NC(=O)C12CC3CC(CC(Br)(C3)C1)C2
[1]
  GI50: > 100 µM (inactive)
[2]
  GI50: > 100 µM (inactive)
[16]
  GI50: > 100 µM (inactive)
[4]
  GI50: > 100 µM (inactive)
[17]
  GI50: > 100 µM (inactive)
[5]
  GI50: > 100 µM (inactive)
[6]
  GI50: > 100 µM (inactive)
[7]
  GI50: > 100 µM (inactive)
[8]
  GI50: > 100 µM (inactive)
[9]
  GI50: > 100 µM (inactive)
[11]
  GI50: > 100 µM (inactive)
[12]
  GI50: > 100 µM (inactive)
[13]
  GI50: > 100 µM (inactive)
[15]
  GI50: > 100 µM (inactive)

## O=C(OCc1ccccc1)N1N=NC2C1C1CC(OCc3ccccc3)(OCc3ccccc3)C2O1 (stereo unspecified)
[1]
  GI50: > 100 µM (inactive)
[2]
  GI50: > 100 µM (inactive)
[16]
  GI50: > 100 µM (inactive)
[3]
  GI50: > 100 µM (inactive)
[4]
  GI50: > 100 µM (inactive)
[17]
  GI50: > 100 µM (inactive)
[5]
  GI50: > 100 µM (inactive)
[6]
  GI50: > 100 µM (inactive)
[7]
  GI50: > 100 µM (inactive)
[8]
  GI50: > 100 µM (inactive)
[9]
  GI50: > 100 µM (inactive)
[10]
  GI50: > 100 µM (inactive)
[11]
  GI50: > 100 µM (inactive)
[12]
  GI50: > 100 µM (inactive)
[13]
  GI50: > 100 µM (inactive)
[14]
  GI50: > 100 µM (inactive)

## Cc1cc(N(CCC#N)CCC#N)ccc1/C=N\c1ccc(C(=O)NN2C(=O)/C(=C/c3ccc(N(CCC#N)CCC#N)cc3)N=C2c2cc([N+](=O)[O-])ccc2Cl)cc1
[1]
  GI50: > 100 µM (inactive)
[2]
  GI50: 55.3 µM (inactive)
[16]
  GI50: > 100 µM (inactive)
[3]
  GI50: > 100 µM (inactive)
[4]
  GI50: 42.5 µM (inactive)
[17]
  GI50: > 100 µM (inactive)
[5]
  GI50: 61.9 µM (inactive)
[6]
  GI50: > 100 µM (inactive)
[7]
  GI50: > 100 µM (inactive)
[8]
  GI50: > 100 µM (inactive)
[9]
  GI50: 80.5 µM (inactive)
[10]
  GI50: > 100 µM (inactive)
[11]
  GI50: > 100 µM (inactive)
[12]
  GI50: > 100 µM (inactive)
[13]
  GI50: > 100 µM (inactive)
[14]
  GI50: > 100 µM (inactive)

## CC1(Sc2ccccc2)CN(Cc2ccccc2)C1=O (stereo unspecified)
[2]
  GI50: > 100 µM (inactive)
[16]
  GI50: > 100 µM (inactive)
[4]
  GI50: > 100 µM (inactive)
[17]
  GI50: > 100 µM (inactive)
[5]
  GI50: 39.5 µM (inactive)
[6]
  GI50: > 100 µM (inactive)
[7]
  GI50: > 100 µM (inactive)
[8]
  GI50: > 100 µM (inactive)
[9]
  GI50: > 100 µM (inactive)
[10]
  GI50: > 100 µM (inactive)
[11]
  GI50: > 100 µM (inactive)
[12]
  GI50: > 100 µM (inactive)
[13]
  GI50: > 100 µM (inactive)
[14]
  GI50: > 100 µM (inactive)
[15]
  GI50: 60.3 µM (inactive)

## C[C@]12CC/C(=N\OC(=O)Nc3ccccc3)C=C1CC[C@@H]1C2CC[C@@]2(C)C1CC[C@@H]2OC(=O)Nc1ccccc1 (stereo partly specified)
[1]
  GI50: > 100 µM (inactive)
[2]
  GI50: 23.1 µM (inactive)
[16]
  GI50: > 100 µM (inactive)
[4]
  GI50: 59 µM (inactive)
[17]
  GI50: > 100 µM (inactive)
[5]
  GI50: 13.4 µM (inactive)
[6]
  GI50: > 100 µM (inactive)
[7]
  GI50: > 100 µM (inactive)
[8]
  GI50: > 100 µM (inactive)
[9]
  GI50: > 100 µM (inactive)
[11]
  GI50: 92.9 µM (inactive)
[12]
  GI50: 73.3 µM (inactive)
[13]
  GI50: 11.7 µM (inactive)
[14]
  GI50: > 100 µM (inactive)

## COC(=O)n1c(C[P+](c2ccccc2)(c2ccccc2)c2ccccc2)cc2ccccc21
[1]
  GI50: 2.11 µM (inactive)
[2]
  GI50: 0.414 µM (active)
[16]
  GI50: 1.15 µM (inactive)
[3]
  GI50: 3.47 µM (inactive)
[4]
  GI50: 2.77 µM (inactive)
[17]
  GI50: 2.81 µM (inactive)
[5]
  GI50: 0.746 µM (active)
[6]
  GI50: 3.17 µM (inactive)
[7]
  GI50: 1.07 µM (active)
[8]
  GI50: 0.664 µM (active)
[9]
  GI50: 1.75 µM (inactive)
[10]
  GI50: 1.73 µM (inactive)
[11]
  GI50: 7.26 µM (inactive)
[12]
  GI50: 1.86 µM (inactive)
[13]
  GI50: 2.26 µM (inactive)
[14]
  GI50: 1.26 µM (inactive)
[15]
  GI50: 1 µM (active)

## O/N=C1/C(=C/c2ccccc2)CCCC1C(NO)c1ccccc1 (stereo unspecified)
[1]
  GI50: > 100 µM (inactive)
[3]
  GI50: 44.2 µM (inactive)
[4]
  GI50: 70.3 µM (inactive)
[17]
  GI50: > 10 µM (inactive)
[5]
  GI50: 28.1 µM (inactive)
[6]
  GI50: > 100 µM (inactive)
[7]
  GI50: > 100 µM (inactive)
[8]
  GI50: > 100 µM (inactive)
[9]
  GI50: > 100 µM (inactive)
[11]
  GI50: > 100 µM (inactive)
[12]
  GI50: 59.2 µM (inactive)
[13]
  GI50: 69.8 µM (inactive)
[14]
  GI50: > 100 µM (inactive)
[15]
  GI50: 45.7 µM (inactive)

## COc1ccc(C)cc1-c1cc(Sc2ccccc2)c(-c2cc(C)ccc2OC)o1
[1]
  GI50: > 100 µM (inactive)
[2]
  GI50: > 31.6 µM (inactive)
[16]
  GI50: > 31.6 µM (inactive)
[3]
  GI50: > 31.6 µM (inactive)
[4]
  GI50: > 31.6 µM (inactive)
[17]
  GI50: > 31.6 µM (inactive)
[5]
  GI50: > 100 µM (inactive)
[6]
  GI50: > 31.6 µM (inactive)
[7]
  GI50: > 100 µM (inactive)
[8]
  GI50: > 31.6 µM (inactive)
[9]
  GI50: > 31.6 µM (inactive)
[10]
  GI50: > 31.6 µM (inactive)
[11]
  GI50: > 31.6 µM (inactive)
[12]
  GI50: > 31.6 µM (inactive)
[13]
  GI50: > 31.6 µM (inactive)
[14]
  GI50: > 31.6 µM (inactive)
[15]
  GI50: > 31.6 µM (inactive)

## COc1cc(Nc2nc3cc(C)ccc3nc2-c2ccccc2)cc(OC)c1OC
[1]
  GI50: > 100 µM (inactive)
[2]
  GI50: 19.2 µM (inactive)
[16]
  GI50: 12.3 µM (inactive)
[3]
  GI50: 29.6 µM (inactive)
[4]
  GI50: 21.5 µM (inactive)
[17]
  GI50: 35 µM (inactive)
[5]
  GI50: 19.7 µM (inactive)
[7]
  GI50: 27.2 µM (inactive)
[8]
  GI50: 63.8 µM (inactive)
[9]
  GI50: 14.8 µM (inactive)
[11]
  GI50: 45.6 µM (inactive)
[12]
  GI50: 22.8 µM (inactive)
[13]
  GI50: 28.7 µM (inactive)
[14]
  GI50: 20.2 µM (inactive)
[15]
  GI50: 25.6 µM (inactive)

## CN(C)c1n/c(=N/c2cccc(Cl)c2)ss1
[1]
  GI50: 35 µM (inactive)
[2]
  GI50: 27.5 µM (inactive)
[16]
  GI50: 20.4 µM (inactive)
[3]
  GI50: 14.1 µM (inactive)
[4]
  GI50: 10.8 µM (inactive)
[17]
  GI50: 11.8 µM (inactive)
[5]
  GI50: 16.7 µM (inactive)
[6]
  GI50: 18.7 µM (inactive)
[7]
  GI50: 14.5 µM (inactive)
[8]
  GI50: 20.3 µM (inactive)
[9]
  GI50: 18.8 µM (inactive)
[10]
  GI50: 34.7 µM (inactive)
[11]
  GI50: 28.1 µM (inactive)
[12]
  GI50: 12.9 µM (inactive)
[13]
  GI50: 12.8 µM (inactive)
[15]
  GI50: 1.16 µM (inactive)
